Test results published in ChEMBL document CHEMBL2375302, “Synthesis, antimicrobial, antiquorum-sensing, antitumor and cytotoxic activities of new series of fused [1,3,4]thiadiazoles” (Eur J Med Chem, 2013).
Values after ≈ are worked out from the molar mass of the structure shown.

Key:
[1] = Growth inhibition of human NCI-ADR-RES cells at 10 uM after 48 hrs by coulter counter analysis relative to control; type: functional; conditions: read-out: GI
SNB-75 = assay: Growth inhibition of human SNB75 cells at 10 uM after 48 hrs by coulter counter analysis relative to control; type: functional; conditions: SNB-75, 48 h, read-out: GI
SF-539 = assay: Growth inhibition of human SF539 cells at 10 uM after 48 hrs by coulter counter analysis relative to control; type: functional; conditions: SF-539, 48 h, read-out: GI
IGROV-1 = assay: Growth inhibition of human IGROV1 cells at 10 uM after 48 hrs by coulter counter analysis relative to control; type: functional; conditions: IGROV-1, 48 h, read-out: GI
T47D = assay: Growth inhibition of human T47D cells at 10 uM after 48 hrs by coulter counter analysis relative to control; type: functional; conditions: read-out: GI
Escherichia coli = assay: Antibacterial activity against Escherichia coli at 5 mg/mL after 24 hrs; type: functional; conditions: read-out: DIZ
[2] = Toxicity against brine shrimp larvae assessed as mortality at 1000 ug/mL after 24 hrs by binocular microscopic analysis relative to control; type: organism-based; conditions: artemia salina, in vivo
MDA-MB-435 = assay: Growth inhibition of human MDA-MB-435 cells at 10 uM after 48 hrs by coulter counter analysis relative to control; type: functional; conditions: MDA-MB-435, 48 h, read-out: GI
NCI-H522 = assay: Growth inhibition of human NCI-H522 cells at 10 uM after 48 hrs by coulter counter analysis relative to control; type: functional; conditions: NCI-H522, 48 h, read-out: GI
COLO 205 = assay: Growth inhibition of human COLO205 cells at 10 uM after 48 hrs by coulter counter analysis relative to control; type: functional; conditions: COLO 205, 48 h, read-out: GI
MDA-MB-468 = assay: Growth inhibition of human MDA-MB-468 cells at 10 uM after 48 hrs by coulter counter analysis relative to control; type: functional; conditions: MDA-MB-468, 48 h, read-out: GI
SK-MEL-2 = assay: Growth inhibition of human SK-MEL-2 cells at 10 uM after 48 hrs by coulter counter analysis relative to control; type: functional; conditions: SK-MEL-2, 48 h, read-out: GI
MDA-MB-231 = assay: Growth inhibition of human MDA-MB-231 cells at 10 uM after 48 hrs by coulter counter analysis relative to control; type: functional; conditions: MDA-MB-231, 48 h, read-out: GI
Staphylococcus aureus = assay: Antibacterial activity against Staphylococcus aureus at 5 mg/mL after 24 hrs; type: functional; conditions: read-out: DIZ
UACC-257 = assay: Growth inhibition of human UACC257 cells at 10 uM after 48 hrs by coulter counter analysis relative to control; type: functional; conditions: UACC-257, 48 h, read-out: GI
UO-31 = assay: Growth inhibition of human UO31 cells at 10 uM after 48 hrs by coulter counter analysis relative to control; type: functional; conditions: UO-31, 48 h, read-out: GI
PC-3 = assay: Growth inhibition of human PC3 cells at 10 uM after 48 hrs by coulter counter analysis relative to control; type: functional; conditions: PC-3, 48 h, read-out: GI
Artemia salina = assay: (§1) Toxicity against brine shrimp larvae assessed as mortality after 24 hrs by binocular microscopic analysis; type: organism-based; conditions: in vivo, 24 h
[3] = as §1; type: organism-based; conditions: artemia salina, in vivo
DU-145 = assay: Growth inhibition of human DU145 cells at 10 uM after 48 hrs by coulter counter analysis relative to control; type: functional; conditions: DU-145, 48 h, read-out: GI
HOP-92 = assay: Growth inhibition of human HOP92 cells at 10 uM after 48 hrs by coulter counter analysis relative to control; type: functional; conditions: HOP-92, 48 h, read-out: GI
[4] = test system: Chromobacterium violaceum; assay: Antiquorum-sensing activity against Chromobacterium violaceum ATCC 12472 after 48 hrs; type: functional
A549 = assay: Growth inhibition of human A549 cells at 10 uM after 48 hrs by coulter counter analysis relative to control; type: functional; conditions: A549, 48 h, read-out: GI
HCT-116 = assay: Growth inhibition of human HCT116 cells at 10 uM after 48 hrs by coulter counter analysis relative to control; type: functional; conditions: HCT-116, 48 h, read-out: GI
Aspergillus flavus = assay: Antifungal activity against Aspergillus flavus 3372 at 5 mg/mL after 48 hrs; type: functional; conditions: Aspergillus flavus, 3372, 48 h; read-out: DIZ
NCI-H460 = assay: Growth inhibition of human NCI-H460 cells at 10 uM after 48 hrs by coulter counter analysis relative to control; type: functional; conditions: NCI-H460, 48 h, read-out: GI
Candida albicans = assay: Antifungal activity against Candida albicans at 5 mg/mL after 48 hrs; type: functional; conditions: read-out: DIZ
SK-MEL-5 = assay: Growth inhibition of human SK-MEL-5 cells at 10 uM after 48 hrs by coulter counter analysis relative to control; type: functional; conditions: SK-MEL-5, 48 h, read-out: GI
MCF7 = assay: Growth inhibition of human MCF7 cells at 10 uM after 48 hrs by coulter counter analysis relative to control; type: functional; conditions: MCF7, 48 h, read-out: GI
Aspergillus fumigatus = assay: Antifungal activity against Aspergillus fumigatus Af293 at 5 mg/mL after 48 hrs; type: functional; conditions: Af293, 48 h, read-out: DIZ
OVCAR-5 = assay: Growth inhibition of human OVCAR5 cells at 10 uM after 48 hrs by coulter counter analysis relative to control; type: functional; conditions: OVCAR-5, 48 h, read-out: GI
K562 = assay: Growth inhibition of human K562 cells at 10 uM after 48 hrs by coulter counter analysis relative to control; type: functional; conditions: K562, 48 h, read-out: GI
CCRF-CEM = assay: Growth inhibition of human CCRF-CEM cells at 10 uM after 48 hrs by coulter counter analysis relative to control; type: functional; conditions: read-out: GI
SW-620 = assay: Growth inhibition of human SW620 cells at 10 uM after 48 hrs by coulter counter analysis relative to control; type: functional; conditions: SW-620, 48 h, read-out: GI
[5] = Growth inhibition of human EKVX cells at 10 uM after 48 hrs by coulter counter analysis relative to control; type: functional; conditions: read-out: GI
HT-29 = assay: Growth inhibition of human HT-29 cells at 10 uM after 48 hrs by coulter counter analysis relative to control; type: functional; conditions: HT-29, 48 h, read-out: GI
OVCAR-8 = assay: Growth inhibition of human OVCAR8 cells at 10 uM after 48 hrs by coulter counter analysis relative to control; type: functional; conditions: OVCAR-8, 48 h, read-out: GI
SR = assay: Growth inhibition of human SR cells at 10 uM after 48 hrs by coulter counter analysis relative to control; type: functional; conditions: read-out: GI
UACC-62 = assay: Growth inhibition of human UACC62 cells at 10 uM after 48 hrs by coulter counter analysis relative to control; type: functional; conditions: UACC-62, 48 h, read-out: GI
OVCAR-4 = assay: Growth inhibition of human OVCAR4 cells at 10 uM after 48 hrs by coulter counter analysis relative to control; type: functional; conditions: OVCAR-4, 48 h, read-out: GI

Compound | inhibition of growth at 10 µM [1] [%] | inhibition of growth at 10 µM (SNB-75) [%] | inhibition of growth at 10 µM (SF-539) [%] | inhibition of growth at 10 µM (IGROV-1) [%] | inhibition of growth at 10 µM (T47D) [%] | zone of inhibition at 5000 µg/mL (Escherichia coli) [mm] | mortality at 24 h, 1000 ug/mL [2] [%] | inhibition of growth at 10 µM (MDA-MB-435) [%] | inhibition of growth at 10 µM (NCI-H522) [%] | inhibition of growth at 10 µM (COLO 205) [%] | inhibition of growth at 10 µM (MDA-MB-468) [%] | inhibition of growth at 10 µM (SK-MEL-2) [%] | inhibition of growth at 10 µM (MDA-MB-231) [%] | zone of inhibition at 5000 µg/mL (Staphylococcus aureus) [mm] | inhibition of growth at 10 µM (UACC-257) [%] | inhibition of growth at 10 µM (UO-31) [%] | inhibition of growth at 10 µM (PC-3) [%] | LC90 (Artemia salina) [µg/mL] | LC50 at 24 h [3] [µg/mL] | inhibition of growth at 10 µM (DU-145) [%] | further results
N#Cc1cnc2sc(S(N)(=O)=O)nn2c1=N | < 10 | < 10 | < 10 | < 10 | < 10 | < 2 | 96.6 | < 10 | < 10 | < 10 | < 10 | < 10 | 12 | < 2 | < 10 | < 10 | < 10 | 754.4 (≈ 2940 µM) | 419 (≈ 1640 µM) | < 10 | inhibition of growth at 10 µM (HOP-92): 20.3%; diameter of the inhibition zone (DIZ) [4]: 11 mm; inhibition of growth at 10 µM (A549): < 10%; inhibition of growth at 10 µM (HCT-116): < 10%; zone of inhibition at 5000 µg/mL (Aspergillus flavus): < 2 mm; inhibition of growth at 10 µM (NCI-H460): < 10%; zone of inhibition at 5000 µg/mL (Candida albicans): < 2 mm; inhibition of growth at 10 µM (SK-MEL-5): < 10%; inhibition of growth at 10 µM (MCF7): < 10%; zone of inhibition at 5000 µg/mL (Aspergillus fumigatus): < 2 mm; inhibition of growth at 10 µM (OVCAR-5): < 10%; inhibition of growth at 10 µM (K562): < 10%; inhibition of growth at 10 µM (CCRF-CEM): < 10%; inhibition of growth at 10 µM (SW-620): < 10%; inhibition of growth at 10 µM [5]: < 10%; inhibition of growth at 10 µM (HT-29): < 10%; inhibition of growth at 10 µM (OVCAR-8): < 10%; inhibition of growth at 10 µM (SR): < 10%; inhibition of growth at 10 µM (UACC-62): < 10%; inhibition of growth at 10 µM (OVCAR-4): < 10%
N#Cc1cnc2sc(S(N)(=O)=O)nn2c1=O | < 10 | 10.3 | < 10 | < 10 | < 10 | 5 | 96.6 | < 10 | < 10 | < 10 | < 10 | < 10 | < 10 | 18 | < 10 | 10.5 | < 10 | 777.87 (≈ 3020 µM) | 432 (≈ 1680 µM) | < 10 | inhibition of growth at 10 µM (HOP-92): 12.3%; diameter of the inhibition zone (DIZ) [4]: 10 mm; inhibition of growth at 10 µM (A549): < 10%; inhibition of growth at 10 µM (HCT-116): < 10%; zone of inhibition at 5000 µg/mL (Aspergillus flavus): < 2 mm; inhibition of growth at 10 µM (NCI-H460): < 10%; zone of inhibition at 5000 µg/mL (Candida albicans): 4 mm; inhibition of growth at 10 µM (SK-MEL-5): < 10%; inhibition of growth at 10 µM (MCF7): < 10%; zone of inhibition at 5000 µg/mL (Aspergillus fumigatus): < 2 mm; inhibition of growth at 10 µM (OVCAR-5): < 10%; inhibition of growth at 10 µM (K562): < 10%; inhibition of growth at 10 µM (CCRF-CEM): < 10%; inhibition of growth at 10 µM (SW-620): < 10%; inhibition of growth at 10 µM [5]: < 10%; inhibition of growth at 10 µM (HT-29): < 10%; inhibition of growth at 10 µM (OVCAR-8): < 10%; inhibition of growth at 10 µM (SR): < 10%; inhibition of growth at 10 µM (UACC-62): < 10%; inhibition of growth at 10 µM (OVCAR-4): < 10%
CCOC(=O)C1C(=O)N=C2SC(S(N)(=O)=O)=NN2C1c1ccc(N(C)C)cc1 (stereo not given) | < 10 | 10.1 | < 10 | < 10 | < 10 | < 2 | 100 | 21.3 | 19.3 | < 10 | < 10 | < 10 | 34.6 | 5 | < 10 | 14.7 | 11.4 | 728.74 (≈ 1710 µM) | 405 (≈ 951 µM) | < 10 | inhibition of growth at 10 µM (HOP-92): 51.2%; diameter of the inhibition zone (DIZ) [4]: <2 mm; inhibition of growth at 10 µM (A549): < 10%; inhibition of growth at 10 µM (HCT-116): < 10%; zone of inhibition at 5000 µg/mL (Aspergillus flavus): < 2 mm; inhibition of growth at 10 µM (NCI-H460): < 10%; zone of inhibition at 5000 µg/mL (Candida albicans): 10 mm; inhibition of growth at 10 µM (SK-MEL-5): < 10%; inhibition of growth at 10 µM (MCF7): 10.2%; zone of inhibition at 5000 µg/mL (Aspergillus fumigatus): 4 mm; inhibition of growth at 10 µM (OVCAR-5): < 10%; inhibition of growth at 10 µM (K562): < 10%; inhibition of growth at 10 µM (CCRF-CEM): < 10%; inhibition of growth at 10 µM (SW-620): < 10%; inhibition of growth at 10 µM [5]: 12.2%; inhibition of growth at 10 µM (HT-29): < 10%; inhibition of growth at 10 µM (OVCAR-8): < 10%; inhibition of growth at 10 µM (SR): 10.3%; inhibition of growth at 10 µM (UACC-62): 13.7%; inhibition of growth at 10 µM (OVCAR-4): < 10%
